# Measured values published in US12582633B2 (priority 2020, dated 2026).
# Values joined by “and” are separate entries in the source; they are usually repeats but may differ in a detail not shown here. Equal values may be shown once.
# Columns and labels:
# SARS-CoV-2 = experiment: microbe, parasite or virus in culture; assay type: cell-based
smiles,measurement,setting,value
O=C1CN(/N=C/c2ccc(-c3ccc([N+](=O)[O-])cc3)o2)C(O)=N1 [dantrolene],cell viability of uninfected Vero E6 cells,Vero E6 cells,good cell viability
same,Day 2 Read (CPE),SARS-CoV-2,3/3 wells had No CPE and 3/3 wells had > 90% CPE and 3/3 wells had sparse
same,Day 4 Read (CPE),SARS-CoV-2,3/3 wells had No CPE and 2/3 wells had > 90% CPE and 1/3 wells had > 90% CPE and 3/3 wells had > 90% CPE and 3/3 wells had sparse
same,Day 6 Read (CPE),SARS-CoV-2,3/3 wells had No CPE and 2/3 wells had > 90% CPE and 1/3 wells had > 90% CPE and 3/3 wells had > 90% CPE and 3/3 wells had sparse
same,MIC,"SARS-CoV-2; Severe acute respiratory syndrome coronavirus 2, read-out: minimum inhibitory concentration",20 µM
